Measured values taken from US11000033B2, “Ketone or oxime compound, and herbicide” (NISSAN CHEMICAL CORPORATION, priority 2014, dated 2021).

Assays:
Format in all cases: in vivo
[1] = test system: Echinochloa oryzacola Vasing.; assay: Test Example 1: herbicidal activity, application before weed generation in submerged conditions (symbol A); conditions: application herbicide amount 320 g/ha
Method in brief: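 Weeds are sown into submerged alluvial soil alongside transplanted 2.5-leaf rice, and the compound, as an emulsion diluted to a set rate, is applied onto the water before emergence. Rating on the 0–5 herbicidal-ratio scale follows 3 weeks of greenhouse growth at 25–30 °C.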

Cyperus difformis = assay: Test Example 3: herbicidal effect by foliage application, Wagner pot (symbol E); conditions: application herbicide amount 320 g/ha
Method in brief: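 In a shallow-flooded alluvial soil system held at 25–30 °C, plants including rice grew for 14 days and were then sprayed over the foliage with emulsion diluted to a fixed herbicide amount. Visual rating followed at 3 weeks.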

Apera spica-venti = assay: Test Example 4: herbicidal effect by soil treatment (symbol L); conditions: application herbicide amount 320 g/ha
Method in brief: (§1)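 Seeds were sown in sterilized diluvial soil, covered with about 1.5 cm of soil, and the soil surface was sprayed with a water-diluted emulsion of the compound at a predetermined rate. Plants grew in a greenhouse at 25° C. to 30° C.; effects were scored visually 3 weeks after application.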

Abutilon theophrasti = assay: Test Example 4: herbicidal effect by soil treatment (symbol M); conditions: application herbicide amount 320 g/ha
Method in brief: as §1

Amaranthus retroflexus = assay: Test Example 4: herbicidal effect by soil treatment (symbol N); conditions: application herbicide amount 320 g/ha
Method in brief: as §1

Veronica persica [2] = assay: Test Example 4: herbicidal effect by soil treatment (symbol R); conditions: application herbicide amount 320 g/ha
Method in brief: as §1

wheat = assay: Test Example 4: effect on crop by soil treatment (symbol e); conditions: application herbicide amount 320 g/ha
Method in brief: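 Seeds were sown in spots on sterilized diluvial soil in a plastic box and covered with about 1.5 cm of soil. Plants were then grown in a greenhouse at 25° C. to 30° C.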

Chenopodium album = assay: Test Example 5: herbicidal effect by foliage application, plastic box (symbol O); conditions: 320 g/ha, 3 weeks after application
Method in brief: (§2)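 After sowing into sterilized diluvial soil and growing two weeks under glass at 25° C. to 30° C., seedlings receive a uniform foliar spray of diluted emulsion. Damage is judged visually three weeks on.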

Galium spurium = assay: Test Example 5: herbicidal effect by foliage application, plastic box (symbol Q); conditions: 320 g/ha, 3 weeks after application
Method in brief: as §2

Veronica persica [3] = assay: Test Example 5: herbicidal effect by foliage application, plastic box (symbol R); conditions: 320 g/ha, 3 weeks after application
Method in brief: as §2

corn = assay: Test Example 5: effect on crop by foliage application, plastic box (symbol c); conditions: 320 g/ha, 3 weeks after application
Method in brief: (§3)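 Foliage-application test plants come from spot sowing in sterilized diluvial soil under a soil layer of about 1.5 cm, grown at 25° C. to 30° C. in a greenhouse.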

soybean = assay: Test Example 5: effect on crop by foliage application, plastic box (symbol d); conditions: 320 g/ha, 3 weeks after application
Method in brief: as §3

SMILES | Herbicidal effect grade, A: Echinochloa oryzacola Vasing. [1] | herbicidal effect on E, grade 0-5 (Cyperus difformis) | L: Apera spica-venti, herbicidal effect grade (Apera spica-venti) | M: Abutilon theophrasti, herbicidal effect grade (Abutilon theophrasti) | N: Amaranthus retroflexus, herbicidal effect grade (Amaranthus retroflexus) | R: Veronica persica, herbicidal effect grade (Veronica persica [2]) | e: wheat, effect on crop grade (wheat) | O: Chenopodium album, herbicidal effect grade (Chenopodium album) | Q: Galium spurium, herbicidal effect grade (Galium spurium) | R: Veronica persica, herbicidal effect grade (Veronica persica [3]) | c: corn, effect on crop grade (corn) | d: soybean, effect on crop grade (soybean)
COC(=O)C(C(=O)C1CC1)C1CC(O)=C(c2c(C)cc(C)cc2C)C1=O (stereo not drawn) [2-014] | 4 (Herbicidal ratio of 70% or higher and lower than 90%) | 5 (Herbicidal ratio of 90% or more (almost completely withered)) | 2 (Herbicidal ratio of 20% or higher and lower than 40%) | 0 (Herbicidal ratio of 5% or lower (almost no effect)) | 0 (Herbicidal ratio of 5% or lower (almost no effect)) | 0 (Herbicidal ratio of 5% or lower (almost no effect)) | 0 (Herbicidal ratio of 5% or lower (almost no effect)) | 0 (Herbicidal ratio of 5% or lower (almost no effect)) | 0 (Herbicidal ratio of 5% or lower (almost no effect)) | 3 (Herbicidal ratio of 40% or higher and lower than 70%) | 3 (Herbicidal ratio of 40% or higher and lower than 70%) | 0 (Herbicidal ratio of 5% or lower (almost no effect))
CCCC(=O)CC1CC(O)=C(c2c(C)cc(C)cc2C)C1=O (stereo not drawn) [2-021] | 4 (Herbicidal ratio of 70% or higher and lower than 90%) | 3 (Herbicidal ratio of 40% or higher and lower than 70%) | 0 (Herbicidal ratio of 5% or lower (almost no effect)) | 1 (Herbicidal ratio of 5% or higher and lower than 20%) | 2 (Herbicidal ratio of 20% or higher and lower than 40%) | 0 (Herbicidal ratio of 5% or lower (almost no effect)) | 0 (Herbicidal ratio of 5% or lower (almost no effect)) | 0 (Herbicidal ratio of 5% or lower (almost no effect)) | 0 (Herbicidal ratio of 5% or lower (almost no effect)) | 0 (Herbicidal ratio of 5% or lower (almost no effect)) | 3 (Herbicidal ratio of 40% or higher and lower than 70%) | 0 (Herbicidal ratio of 5% or lower (almost no effect))
CCOC(=O)C(C(=O)CC1CC1)C1CC(O)=C(c2c(C)cc(C)cc2C)C1=O (stereo not drawn) [2-025] | 3 (Herbicidal ratio of 40% or higher and lower than 70%) | 0 (Herbicidal ratio of 5% or lower (almost no effect)) | 0 (Herbicidal ratio of 5% or lower (almost no effect)) | 0 (Herbicidal ratio of 5% or lower (almost no effect)) | 0 (Herbicidal ratio of 5% or lower (almost no effect)) | 0 (Herbicidal ratio of 5% or lower (almost no effect)) | 0 (Herbicidal ratio of 5% or lower (almost no effect)) | 0 (Herbicidal ratio of 5% or lower (almost no effect)) | 0 (Herbicidal ratio of 5% or lower (almost no effect)) | 0 (Herbicidal ratio of 5% or lower (almost no effect)) | 1 (Herbicidal ratio of 5% or higher and lower than 20%) | 0 (Herbicidal ratio of 5% or lower (almost no effect))
Cc1cc(C)c(C2=C(O)CC(CC(=O)CC3CC3)C2=O)c(C)c1 (stereo not drawn) [2-026] | 3 (Herbicidal ratio of 40% or higher and lower than 70%) | 5 (Herbicidal ratio of 90% or more (almost completely withered)) | 2 (Herbicidal ratio of 20% or higher and lower than 40%) | 0 (Herbicidal ratio of 5% or lower (almost no effect)) | 0 (Herbicidal ratio of 5% or lower (almost no effect)) | 0 (Herbicidal ratio of 5% or lower (almost no effect)) | 0 (Herbicidal ratio of 5% or lower (almost no effect)) | 0 (Herbicidal ratio of 5% or lower (almost no effect)) | 0 (Herbicidal ratio of 5% or lower (almost no effect)) | 0 (Herbicidal ratio of 5% or lower (almost no effect)) | 2 (Herbicidal ratio of 20% or higher and lower than 40%) | 0 (Herbicidal ratio of 5% or lower (almost no effect))
Cc1cc(C)c(C2=C(O)CC(CC(=O)C3CCCC3)C2=O)c(C)c1 (stereo not drawn) [2-028] | 3 (Herbicidal ratio of 40% or higher and lower than 70%) | 4 (Herbicidal ratio of 70% or higher and lower than 90%) | 2 (Herbicidal ratio of 20% or higher and lower than 40%) | 1 (Herbicidal ratio of 5% or higher and lower than 20%) | 0 (Herbicidal ratio of 5% or lower (almost no effect)) | 0 (Herbicidal ratio of 5% or lower (almost no effect)) | 0 (Herbicidal ratio of 5% or lower (almost no effect)) | 0 (Herbicidal ratio of 5% or lower (almost no effect)) | 0 (Herbicidal ratio of 5% or lower (almost no effect)) | 0 (Herbicidal ratio of 5% or lower (almost no effect)) | 4 (Herbicidal ratio of 70% or higher and lower than 90%) | 0 (Herbicidal ratio of 5% or lower (almost no effect))
Cc1cc(C)c(C2=C(O)CC(CC(=O)C3CCCCC3)C2=O)c(C)c1 (stereo not drawn) [2-030] | 4 (Herbicidal ratio of 70% or higher and lower than 90%) | 0 (Herbicidal ratio of 5% or lower (almost no effect)) | 4 (Herbicidal ratio of 70% or higher and lower than 90%) | 0 (Herbicidal ratio of 5% or lower (almost no effect)) | 0 (Herbicidal ratio of 5% or lower (almost no effect)) | 0 (Herbicidal ratio of 5% or lower (almost no effect)) | 0 (Herbicidal ratio of 5% or lower (almost no effect)) | 0 (Herbicidal ratio of 5% or lower (almost no effect)) | 0 (Herbicidal ratio of 5% or lower (almost no effect)) | 1 (Herbicidal ratio of 5% or higher and lower than 20%) | 2 (Herbicidal ratio of 20% or higher and lower than 40%) | 0 (Herbicidal ratio of 5% or lower (almost no effect))
C=CC(=O)CC1CC(O)=C(c2c(C)cc(C)cc2C)C1=O (stereo not drawn) [2-031] | 4 (Herbicidal ratio of 70% or higher and lower than 90%) | 5 (Herbicidal ratio of 90% or more (almost completely withered)) | 2 (Herbicidal ratio of 20% or higher and lower than 40%) | 1 (Herbicidal ratio of 5% or higher and lower than 20%) | 0 (Herbicidal ratio of 5% or lower (almost no effect)) | 0 (Herbicidal ratio of 5% or lower (almost no effect)) | 3 (Herbicidal ratio of 40% or higher and lower than 70%) | 0 (Herbicidal ratio of 5% or lower (almost no effect)) | 0 (Herbicidal ratio of 5% or lower (almost no effect)) | 4 (Herbicidal ratio of 70% or higher and lower than 90%) | 5 (Herbicidal ratio of 90% or more (almost completely withered)) | 0 (Herbicidal ratio of 5% or lower (almost no effect))
